Laboratory results as given in patent publication US20250312469A1 (CANGET BIOTEKPHARMA, priority 2024, published 2025).

Legend:
[1] = system: SK-ES-1 OS tumors; test: SK-ES-1 osteosarcoma xenograft; type: in vivo, SCID mice; details: weekly×4
[2] = in vitro; details: both, human, whole blood (sodium heparin), pH 7.4

| Structure (SMILES) | antitumor efficacy [1] | blood plasma ratio at 60 min, 1 μM [2] |
| --- | --- | --- |
| COc1cccc2c1C(=O)c1c(O)c3c(c(O)c1C2=O)C[C@@](O)(C(=O)CO)C[C@@H]3O[C@H]1C[C@H](N)[C@H](O)[C@H](C)O1 [DOX, doxorubicin, reference compound] | not seen | – |
| NS(=O)(=O)c1cc(C2(O)NC(=O)c3ccccc32)ccc1Cl (centres unmarked) [chlorthalidone] | – | 8.73 |
